Reference: patent US6887888B2, “Soluble compositions of triphenylethylene antiestrogens” (Orion Corporation, priority 1998, dated 2005)
Counter-ions that a name gives are not always drawn. Like-named read-outs stand apart in the source and are kept apart here.

Assay: Solubility of toremifene citrate in solvent (reference)
Format: physicochemical

solubility (0.1 M HCl, simulated gastric fluid, read-out: Solubility in 0.1 M HCl): ~30 µg/mL
solubility (ethanol, organic solvent or mixture, read-out: Solubility in ethanol): ~3000 µg/mL
SMILES: CN(C)CCOc1ccc(/C(=C(/CCCl)c2ccccc2)c2ccccc2)cc1 [toremifene citrate]
